Patent US20100261708A1 (BOEHRINGER INGELHEIM INTERNATIONAL GMBH, priority 2007, published 2010)

Molecular target: T1, human CB2R (Homo sapiens, UniProt P34972)
T1 construct: host or cells: CHO cells
Assay: CB2R mediated modulation of cAMP synthesis
Format: cell-based
Settings: not given
Method: B. CB2R Mediated Modulation of cAMP Synthesis:
Compounds of the invention were evaluated for their CB2 agonist or inverse agonistic activity in accordance with the following experimental method.
CHO cells expressing human CB2R (Euroscreen) were plated at a density of 5000 cells per well in 384 well plates and incubated overnight at 37° C. After removing the media, the cells were treated with test compounds diluted in stimulation buffer containing 1 mM IBMX, 0.25% BSA and 10 uM Forskolin. The assay was incubated for 30 minutes at 37° C. Cells were lysed and the cAMP concentration was measured using DiscoverX-XS cAMP kit, following the manufacturer's protocol. In this setting, agonists will decrease forskolin induced production of cAMP while inverse agonists will further increase forskolin induced production of cAMP. EC50 of agonists were calculated as follows. The maximal amount of cAMP produced by forskolin compared to the level of cAMP inhibited by 1 uM CP55940 is defined as 100%. […] Data was analyzed using a four-parameter logistic model. (Model 205 of XLfit 4.0).

T1 sequence (P34972 whole entry): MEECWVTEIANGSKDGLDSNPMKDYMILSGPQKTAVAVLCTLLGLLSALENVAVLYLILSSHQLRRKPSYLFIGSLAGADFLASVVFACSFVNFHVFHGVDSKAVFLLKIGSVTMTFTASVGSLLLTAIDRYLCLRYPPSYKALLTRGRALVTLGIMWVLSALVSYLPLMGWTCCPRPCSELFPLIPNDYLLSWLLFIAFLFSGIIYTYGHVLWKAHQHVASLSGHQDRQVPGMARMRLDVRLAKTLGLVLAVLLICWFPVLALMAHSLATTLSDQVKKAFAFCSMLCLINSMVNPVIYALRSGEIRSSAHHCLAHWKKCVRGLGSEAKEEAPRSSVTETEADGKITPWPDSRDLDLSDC

Structure (SMILES) | EC50
O=C(C1CCOCC1)N1CCCN(c2nc3cc(C(F)(F)F)ccc3s2)CC1 [Example 65] | 35 nM
CC(C)(C)c1ccc2oc(N3CCCN(C(=O)c4ccc(Cl)cc4)CC3)nc2c1 [Example 3, [4-(5-tert-Butyl-benzooxazol-2-yl)-[1,4]diazepan-1-yl]-(4-chloro-phenyl)-methanone] | 0.14 nM
O=C(c1ccc(Cl)cc1)N1CCCN(c2nc3ccc(Cl)cc3s2)CC1 [Example 9, [4-(6-Chloro-benzothiazol-2-yl)-[1,4]diazepan-1-yl]-(4-chloro-phenyl)-methanone] | 30 nM
CC(C)(C)c1cc(NC(=O)N2CCCN(c3ncc(Cl)cc3Cl)CC2)no1 [Example 21, 4-(3,5-Dichloro-pyridin-2-yl)-[1,4]diazepane-1-carboxylic acid (5-tert-butyl-isoxazol-3-yl)-amide] | 44 nM
CCc1cnc(N2CCCN(C(=O)Nc3cc(C(C)(C)C)on3)CC2)nc1 [Example 79, 4-(5-Ethyl-pyrimidin-2-yl)-[1,4]diazepane-1-carboxylic acid (5-tert-butyl-isoxazol-3-yl)-amide] | 6 nM
Cc1nc(NC(=O)N2CCCN(c3ncc(C(F)(F)F)cc3Cl)CC2)sc1C(C)(C)C [Example 14, 4-(3-Chloro-5-trifluoromethyl-pyridin-2-yl)-[1,4]diazepane-1-carboxylic acid (5-tert-butyl-4-methyl-thiazol-2-yl)-amide] | 0.94 nM

Same assay, conditions: read-out: CB2 CAMP @EC50

Structure (SMILES) | EC50
O=C(C1CCOCC1)N1CCCN(c2nc3cc(C(F)(F)F)ccc3o2)CC1 [Example 5, (Tetrahydro-pyran-4-yl)-[4-(5-trifluoromethyl-benzooxazol-2-yl)-[1,4]diazepan-1-yl]-methanone] | 43 nM
O=C(C1CCOCC1)N1CCCN(c2nc3cc(-c4ccccc4)ccc3o2)CC1 [Example 71, [4-(5-Phenyl-benzooxazol-2-yl)-[1,4]diazepan-1-yl]-(tetrahydro-pyran-4-yl)-methanone] | 77 nM
O=C(C1CCC(O)CC1)N1CCCN(c2nc3cc(C(F)(F)F)ccc3o2)CC1 (stereo not shown) [Example 32, (4-Hydroxy-cyclohexyl)-[4-(5-trifluoromethyl-benzooxazol-2-yl)-[1,4]diazepan-1-yl]-methanone] | 19 nM
Cc1ccc2nc(N3CCCN(C(=O)C4CCOCC4)CC3)sc2c1 [Example 64, [4-(6-Methyl-benzothiazol-2-yl)-[1,4]diazepan-1-yl]-(tetrahydro-pyran-4-yl)-methanone] | 110 nM
O=C(C1CCOCC1)N1CCCN(c2ncc(CN3CCOCC3)s2)CC1 [Example 54, [4-(5-Morpholin-4-ylmethyl-thiazol-2-yl)-[1,4]diazepan-1-yl]-(tetrahydro-pyran-4-yl)-methanone] | 14 nM
O=C(N1CCOCC1)N1CCCN(c2nc3cc(Cl)ccc3o2)CC1 [Example 72, [4-(5-Chloro-benzooxazol-2-yl)-[1,4]diazepan-1-yl]-morpholin-4-yl-methanone] | 490 nM
CC(C)(C)c1ccc2oc(N3CCCN(C(=O)C4CCC(F)(F)CC4)CC3)nc2c1 [Example 4, [4-(5-tert-Butyl-benzooxazol-2-yl)-[1,4]diazepan-1-yl]-(4,4-difluoro-cyclohexyl)-methanone] | 0.017 nM
Cc1c(Cl)ccc2sc(N3CCCN(C(=O)N4CCOCC4)CC3)nc12 [Example 38, [4-(5-Chloro-4-methyl-benzothiazol-2-yl)-[1,4]diazepan-1-yl]-morpholin-4-yl-methanone] | 204 nM
Cc1ccnc(N2CCCN(C(=O)Nc3cc(C(C)(C)C)on3)CC2)n1 [Example 81, 4-(4-Methyl-pyrimidin-2-yl)-[1,4]diazepane-1-carboxylic acid (5-tert-butyl-isoxazol-3-yl)-amide] | 344 nM
Cc1ccc(Cl)c2sc(N3CCCN(C(=O)N4CCOCC4)CC3)nc12 [Example 39, [4-(7-Chloro-4-methyl-benzothiazol-2-yl)-[1,4]diazepan-1-yl]-morpholin-4-yl-methanone] | 2 nM
CCC(C)c1cc(NC(=O)N2CCCN(c3ncc(C(F)(F)F)cc3Cl)CC2)n(C)n1 (stereo not shown) [Example 68, 4-(3-Chloro-5-trifluoromethyl-pyridin-2-yl)-[1,4]diazepane-1-carboxylic acid (5-sec-butyl-2-methyl-2H-pyrazol-3-yl)-amide] | 14 nM
Cc1cc(C)c2sc(N3CCCN(C(=O)C4CCOCC4)CC3)nc2c1 [Example 47, [4-(5,7-Dimethyl-benzothiazol-2-yl)-[1,4]diazepan-1-yl]-(tetrahydro-pyran-4-yl)-methanone] | 53 nM
O=C(N1CCCN(c2nc3ccccc3[nH]2)CC1)N1CCS(=O)(=O)CC1 [Example 56, [4-(1H-Benzoimidazol-2-yl)-[1,4]diazepan-1-yl]-(1,1-dioxo-1λ^6-thiomorpholin-4-yl)-methanone] | 327 nM
Cc1c(Cl)ccc2sc(N3CCCN(C(=O)C4CCOCC4)CC3)nc12 [Example 48, [4-(5-Chloro-4-methyl-benzothiazol-2-yl)-[1,4]diazepan-1-yl]-(tetrahydro-pyran-4-yl)-methanone] | 3 nM
O=C(C1CCOCC1)N1CCCN(c2nc(-c3ccccc3)cs2)CC1 [Example 53, [4-(4-Phenyl-thiazol-2-yl)-[1,4]diazepan-1-yl]-(tetrahydro-pyran-4-yl)-methanone] | 217 nM
O=C(c1ccc(Cl)cc1)N1CCCN(c2nc(-c3ccccc3)ns2)CC1 [Example 11, (4-Chloro-phenyl)-[4-(3-phenyl-[1,2,4]thiadiazol-5-yl)-[1,4]diazepan-1-yl]-methanone] | 5 nM
Cn1nc(C(C)(C)C)cc1NC(=O)N1CCCN(c2ncc(Cl)cc2Cl)CC1 [Example 28, 4-(3,5-Dichloro-pyridin-2-yl)-[1,4]diazepane-1-carboxylic acid (5-tert-butyl-2-methyl-2H-pyrazol-3-yl)-amide] | 500 nM
O=C(C1CCC(F)(F)CC1)N1CCCN(c2nc3cc(C(F)(F)F)ccc3o2)CC1 [Example 67, (4,4-Difluoro-cyclohexyl)-[4-(5-trifluoromethyl-benzooxazol-2-yl)-[1,4]diazepan-1-yl]-methanone] | 10 nM
Cc1ccc(C)c2sc(N3CCCN(C(=O)C4CCOCC4)CC3)nc12 [Example 46, [4-(4,7-Dimethyl-benzothiazol-2-yl)-[1,4]diazepan-1-yl]-(tetrahydro-pyran-4-yl)-methanone] | 445 nM
N#Cc1cnc(N2CCCN(C(=O)C3CCOCC3)CC2)s1 [Example 34, 2-[4-(Tetrahydro-pyran-4-carbonyl)-[1,4]diazepan-1-yl]-thiazole-5-carbonitrile] | 40 nM
CC(C)(C)c1cc(NC(=O)N2CCCN(c3nccc(C(F)(F)F)n3)CC2)no1 [Example 23, 4-(4-Trifluoromethyl-pyrimidin-2-yl)-[1,4]diazepane-1-carboxylic acid (5-tert-butyl-isoxazol-3-yl)-amide] | 333 nM
CC(C)(C)SCCNC(=O)N1CCCN(c2ncc(C(F)(F)F)cc2Cl)CC1 [Example 15, 4-(3-Chloro-5-trifluoromethyl-pyridin-2-yl)-[1,4]diazepane-1-carboxylic acid (2-tert-butylsulfanyl-ethyl)-amide] | 21 nM
Cc1csc(NC(=O)N2CCCN(c3ncc(C(F)(F)F)cc3Cl)CC2)n1 [Example 6, 4-(3-Chloro-5-trifluoromethyl-pyridin-2-yl)-[1,4]diazepane-1-carboxylic acid (4-methyl-thiazol-2-yl)-amide] | 30 nM
Cc1ccc(Cl)c2sc(N3CCCN(C(=O)C4CCOCC4)CC3)nc12 [Example 43, [4-(7-Chloro-4-methyl-benzothiazol-2-yl)-[1,4]diazepan-1-yl]-(tetrahydro-pyran-4-yl)-methanone] | 114 nM
O=C(C1CCOCC1)N1CCCN(c2nc3ccc(Cl)cc3o2)CC1 [Example 70, [4-(6-Chloro-benzooxazol-2-yl)-[1,4]diazepan-1-yl]-(tetrahydro-pyran-4-yl)-methanone] | 180 nM
Cc1cc(Cl)cc2sc(N3CCCN(C(=O)C4CCOCC4)CC3)nc12 [Example 42, [4-(6-Chloro-4-methyl-benzothiazol-2-yl)-[1,4]diazepan-1-yl]-(tetrahydro-pyran-4-yl)-methanone] | 221 nM
Cc1csc2ncnc(N3CCCN(C(=O)N4CCOCC4)CC3)c12 [Example 86, [4-(5-Methyl-thieno[2,3-d]pyrimidin-4-yl)-[1,4]diazepan-1-yl]-morpholin-4-yl-methanone] | 45.2 nM
FC(F)(F)c1cnc(N2CCCN(c3nc4cc(C(F)(F)F)ccc4o3)CC2)c(Cl)c1 [Example 49, 2-[4-(3-Chloro-5-trifluoromethyl-pyridin-2-yl)-[1,4]diazepan-1-yl]-5-trifluoromethyl-benzooxazole] | 54 nM
